Source: PMC3335822 (PLoS ONE, 2012)

Columns and labels:
human EYA3 = target: T1, human EYA3 (Homo sapiens, UniProt Q99504); assay: pNPP hydrolysis by full-length EYA3; format: biochemical
T1 construct: residues 127–573 of NM_001990, isoform 1; His-GST (poly-histidine, glutathione-S-transferase) with TVMV protease site (cleaved yes); made in house
T1 sequence (Q99504 127-573): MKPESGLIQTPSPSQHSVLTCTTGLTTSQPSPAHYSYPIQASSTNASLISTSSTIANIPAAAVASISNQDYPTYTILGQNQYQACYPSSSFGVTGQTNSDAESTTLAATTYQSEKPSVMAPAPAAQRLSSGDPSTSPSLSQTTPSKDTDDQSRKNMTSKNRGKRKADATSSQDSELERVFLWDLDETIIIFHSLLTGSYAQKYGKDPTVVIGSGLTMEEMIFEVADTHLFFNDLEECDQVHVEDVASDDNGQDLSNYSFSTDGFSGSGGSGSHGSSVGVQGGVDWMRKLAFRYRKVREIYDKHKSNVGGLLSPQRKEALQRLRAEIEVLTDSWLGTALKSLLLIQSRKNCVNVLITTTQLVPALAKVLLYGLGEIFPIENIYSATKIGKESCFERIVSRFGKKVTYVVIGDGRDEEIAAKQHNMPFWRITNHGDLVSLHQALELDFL
Description: The catalytic domain (ED) of mouse Eyes Absent 3 (Eya3(223–510)) was purified as described before. Human Eyes Absent 3 isoform 2 (representing the major species identified in human cell lines by mass spectrometry and residues 127–573 of NM_001990, isoform 1) was sub-cloned into pDEST565 to express a poly-histidine- Glutathione-S-transferase (His-GST) tagged fusion protein with a TVMV protease site. The protein was purified by glutathione-S-transferase affinity chromatography followed by TVMV cleavage, Ni-NTA chromatography, and finally size exclusion chromatography. […]
(§1) Compounds were dissolved in DMSO and diluted as needed. […] Reactions were incubated at 30°C for 30 minutes and quenched with 100 mM EDTA pH 10. IC50 values were then calculated directly from regression curves using PRISM. All reported values are the mean of two independent experiments.

human EYA2(ED) = target: T2, human EYA2(ED) (Homo sapiens, UniProt O00167); assay: pNPP hydrolysis by the catalytic domain of EYA2; format: biochemical; conditions: substrate pNPP
T2 sequence (O00167 267-538 limits assumed): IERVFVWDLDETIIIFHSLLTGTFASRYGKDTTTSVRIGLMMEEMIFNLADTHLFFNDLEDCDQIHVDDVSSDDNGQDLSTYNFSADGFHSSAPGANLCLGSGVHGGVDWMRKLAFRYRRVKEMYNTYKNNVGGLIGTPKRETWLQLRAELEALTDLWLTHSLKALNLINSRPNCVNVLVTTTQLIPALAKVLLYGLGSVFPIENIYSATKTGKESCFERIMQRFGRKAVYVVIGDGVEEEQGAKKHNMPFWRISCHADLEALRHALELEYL
Method: The catalytic domain of human Eyes Absent 2 was similarly sub-cloned as a poly-histidine fusion construct in the vector pDEST-527. Fusion protein was purified by Ni-NTA chromatography and followed by size-exclusion chromatography over a Superdex-75 column. The relative purity of protein samples was determined using SDS-PAGE. PTP1B was purified as described previously.
The NCI Diversity Set II was obtained from the NCI in 96-well trays from the NIH Molecular Libraries Program and stored as 10 mM stocks in DMSO. An initial manual screen was conducted using the previously described p-nitrophenylphosphate assay and mouse Eya3(223–510) in a reaction mixture containing 20 mM MES pH 6, 2 mM MgCl2, 125 μM inhibitor, 3.4 mM para-nitrophenol phosphate (pNPP) and 0.01 μg/µL enzyme. The amount of 4-nitrophenol (pNP) produced was monitored at […] on a BioTek EL808 plate reader. A similar protocol was used to screen for inhibitor activity using hEYA3 and hEYA2(ED).
as §1

EYA3-SIX2 interaction = target: T3, EYA3-SIX2 interaction (Homo sapiens, UniProt Q99504); assay: His-SIX2 Ni-NTA pull-down of EYA3; format: binding; conditions: 50 μM, 15 minutes at room temperature
T3 construct: residues 127–573 of NM_001990, isoform 1; His-GST (poly-histidine, glutathione-S-transferase) with TVMV protease site (cleaved yes); made in house
T3 sequence (Q99504 127-573): T1 sequence (Q99504 127-573)
T3 sequence (Q9NPC8 1-291 partner): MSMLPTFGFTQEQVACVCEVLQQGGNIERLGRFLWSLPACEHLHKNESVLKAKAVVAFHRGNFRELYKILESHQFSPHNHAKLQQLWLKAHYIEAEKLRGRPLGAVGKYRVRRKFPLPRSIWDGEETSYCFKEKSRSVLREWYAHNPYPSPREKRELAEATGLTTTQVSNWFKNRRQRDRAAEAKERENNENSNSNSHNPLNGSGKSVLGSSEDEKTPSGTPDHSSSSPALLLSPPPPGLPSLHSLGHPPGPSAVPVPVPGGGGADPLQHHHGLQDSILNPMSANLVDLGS
Description: The catalytic domain of the EYAs also mediates its interaction with the SIX proteins. This complex then translocates to the nucleus where the SIX-EYA complex can activate transcription.

[1] = tested on: urate transporter SLC22A12 (URAT1); parameters: method as in PMID 21272127; conditions: cited from earlier work

SMILES | inhibitory effect in the presence of detergent (human EYA3; 0.01% Triton X-100) | IC50 (human EYA2(ED)) [µM] | effect on the interaction between EYA3 and SIX2 (EYA3-SIX2 interaction) | inhibition of URAT1 [1] | IC50 (human EYA3; full-length human EYA3, substrate pNPP) [µM]
CCc1oc2ccccc2c1C(=O)c1cc(Br)c(O)c(Br)c1 [Compound 1, Benzbromarone] | inhibitory effect was retained | 10.3 | does not affect the interaction between EYA3 and SIX2 | inhibition of the urate transporter SLC22A12 (URAT1) | 
CCc1oc2ccccc2c1C(=O)c1ccc(O)cc1 [Compound 1a, Benzarone] |  |  |  | inhibition of the urate transporter SLC22A12 (URAT1) | 17
